The source of these data is patent US10653744B2, “Formulations and methods for treating ulcerative colitis” (priority 2016, dated 2020).

Positions of bridges follow the written chain, without caps; N, C: chain ends. Non-standard residues stand in square brackets, D forms with d. No end group written: not given here.

In data set [1] the test system is TNBS-induced acute colitis. The conditions noted are these: oral treatment, murine model; cited from earlier work.
The test system of data set [2] is DSS-induced acute colitis. The conditions noted are these: oral treatment, murine model; cited from earlier work.
For data set [3], the system named is patients with mild to moderate ulcerative colitis. The experiment in a line: Double-blind, placebo-controlled, four-week study of rectal dolcanatide in ulcerative colitis patients. It counts as in vivo, human. The note with it: for improvement of ulcerative colitis symptoms compared with placebo-treated patients: 6 mg dissolved in saline, intra-rectally every evening for 28 days, 28 patients. The method, then: A double-blind, placebo-controlled, four-week study evaluating 28 patients with mild-to-moderate ulcerative colitis was conducted. Patients received 6 mg Dolcanatide dissolved in saline administered intra-rectally each evening for 28 days.
A double-blind, placebo-controlled, four week study was performed evaluating 28 patients with mild to moderate ulcerative colitis. Subjects were treated with either saline (placebo) or Dolcanatide (SP-333; SEQ ID NO: 9). Six mg of Dolcanatide was dissolved in saline and administered intra-rectally every evening for 28 days.

For “dAsn^1-Asp^2-Glu^3-Cys^4-Glu^5-Leu^6-Cys^7-Val^8-Asn^9-Val^10-Ala^11-Cys^12-Thr^13-Gly^14-Cys^15-dLeu^16 ([dN]DECELCVNVACTGC[dL]; disulfide 4-12, 7-15; ends not checked) [Dolcanatide]”, the “effect on TNBS-induced acute colitis” value in data set [1] was “ameliorate”. In addition, the “effect on DSS-induced acute colitis” value in data set [2] was “ameliorate”. For the same substance, the “improvement of ulcerative colitis symptoms compared with placebo-treated patients” value in data set [3] is reported as “Improved Ulcerative Colitis Symptoms”; in data set [3] (listed as dolcanatide), “clear signals of improvement”. Further, the safety and tolerability entry in data set [3] (6 mg intra-rectally each evening for 28 days) is “safe and well tolerated”. Further, the “remission from ulcerative colitis symptoms” value in data set [3] (after 28 days of treatment, 6 mg intra-rectally every evening) is listed as “in remission from their ulcerative colitis symptoms”.
